Measured values: patent publication US9844506B2, “Compositions and methods for affecting mood states” (priority 2013, dated 2017)

Tests used:
[1] = test system: microcirculation of the skin; test: Laser Doppler capillary blood flow in human female subjects, 10,000 ppm NO in closed chamber (Example 5); assay type: in vivo; settings: applied to skin at 1/10% in alcohol
Description: The formulation used in these studies contained nitric oxide dispersed in a lipid matrix. […] Nitric oxide is a very rapid acting molecule, and these studies used a system that employed laser Doppler with a covered chamber. The formulation was placed into the chamber and then attached to the skin by an adhesive layer on the covering. This provided a stable measuring device as determined by multiple normal evaluations of the capillary blood flow without treatment of nitric oxide.
A known positive control, methyl nicotinate, was applied to the skin at a concentration of 1/10% in alcohol. […] The vascular dynamics are such that when the blood vessels dilate physical parameters follow Bernoulli's law. This states that as one increases the diameter of a tube containing a liquid to flow will increase but the pressure and the speed of the liquid will decrease. The laser Doppler device accurately measured these parameters.
The test product was labeled as 10,000 ppm NO (nitric oxide). The study participants had 100 mg of the test product applied in a closed Hilltop chamber on the forearm. […]
A Moor Instruments DRT4 Laser Doppler Blood Flow Monitor (Devon, England) was used in these studies. The laser Doppler technique measured blood flow in the microcapillaries of the skin that are close to the skin surface and the blood flow in underlying arterioles and venules that help to regulate skin temperature. […]

[2] = test system: cutaneous vascular system; test: Laser Doppler circulation in five human subjects, 10,000 ppm NO formulation (Example 8); assay type: in vivo; settings: positive control formulation containing 0.1% methyl nicotinate
Description: This example illustrates delivery of nitric oxide formulations to five human subjects, using procedures and formulations similar to those discussed in Example 5. Each person served as their own control for the testing. A Moor Instruments Laser Doppler was used to determine circulation. […] The formulations used produce positive, almost immediate results when applied to the skin which, in these studies, was manifested by vasodilatation of the cutaneous vascular system.
For each subject, the following creams were applied: a negative control formulation (containing no NO), 0.010 gram of a 10,000 ppm NO formulation, 0.020 gram of a 10,000 ppm NO formulation, and a positive control formulation containing 0.1% methyl nicotinate. The formulations were prepared using procedures similar to those discussed in Example 1.

[3] = Interaction of nitric oxide with carriers, weight gain on bubbling NO gas (Example 2); assay type: physicochemical; settings: NO bubbled 40 hr, 25° C.
Protocol: In this example, six experiments were carried out to investigate the interaction of nitric oxide with three carriers (HNC 157-62, HNC 157-65, and HNC 157-69) as well as with 1,3-propanediol, using experimental conditions similar to that described for Example 1. In addition three experiments were performed to prepare carriers containing 800 ppm and 500 ppm nitric oxide. HNC 157-62 was formed of 65% Phospholipon-90G (American Lecithin Company), 18% isopropyl palmitate (Kraft Chemicals), 8% capric caprylic triglycerides (RITA Corp.), and 9% propanediol (Dupont). HNC 157-65 was formed of 65% Phospholipon-90G, 13% isopropyl palmitate, 14% capric caprylic triglycerides, 3% propanediol, and 5% dimethyl isosorbide (Croda). HNC 157-69 was formed from 65% Phospholipon-90G, 16% isopropyl palmitate, and 19% capric caprylic triglycerides.
The compositions were generally prepared as follows. Isopropyl palmitate, capric caprylic triglyceride, propanediol (for HNC 157-62 and HNC 157-65), and dimethyl isosorbide (for HNC 157-65) were mixed together and warmed to 40° C. Phospholipon-90G was then gradually added to this liquid mixture by mixing it. Phospholipon-90G is typically received as individual pellets, and is mixed into the solution until fully dissolved. The mixture was subsequently filtered through a sieve to remove any undissolved Phospholipon-90G. […]

| Compound | laser Doppler response to positive control [1] | vasodilatation versus control untreated skin [2] | % Wt. gain [3] [%] | Wt. Gain [3] [g] |
| --- | --- | --- | --- | --- |
| COC(=O)c1cccnc1 [methyl nicotinate] | rapid response typical of the vasodilator | vasodilatation was observed | – | – |
| OCCCO [1,3-Propanediol, 1,3-propanediol] | – | – | 0.09 | 0.16 |
